Assay results reported in US20260265334A1, “STAPLED PEPTIDES” (THE FLOREY INSTITUTE OF NEUROSCIENCE AND MENTAL HEALTH, priority 2023, published 2026).
Blank lines part the entries; values can stand above or below the molecule they belong to. Bridge positions count the residues as written; N and C are the ends. Square brackets hold non-standard residues; d marks the D form. Peptide text beside a SMILES is read from it. I, II: the chains in the order shown. αMeF = C[C@](N)(Cc1ccccc1)C(=O)O

What was measured:
[1] = system: mouse model of inflammatory persistent pain; test: CFA model of inflammatory persistent pain; type: in vivo; conditions: co-injection with RXFP3 agonist
Description: Pilot studies were conducted in a mouse model of inflammatory persistent pain obtained by intraplantar injection of Complete Freund's Adjuvant (CFA). […] The effect is maximal at 30 minutes after the injection and vanished after 1 hour. The same result has been obtained in a rat CFA model with a similar time course of the antinociceptive effect.

[2] = system: C57B16 mice; test: Colorectal propulsion (bead expulsion) in loperamide-constipated mice; type: in vivo, mouse; conditions: 20 μg/kg i.p., 10 minutes after loperamide 1 mg/kg s.c.
Description: Male C57B16 mice (20-30 g; ARC), between the ages of 3 to 5 months, were used for all studies. All experiments were conducted in accordance with the National Health and Medical Research Council (NHMRC) guidelines for the care and use of animals and with approval from the Florey Institute of Neuroscience and Mental Health Animal Ethics Committee (#18-128 FINMH and #18-081 FINMH). All animals were group housed (2-6 per cage) and maintained in a humidity-controlled room at 22° C. under a 12 hours light/dark cycle with access to food and water ad libitum.
Loperamide (Sigma-Aldrich) was prepared in 1% Tween-80 (SigmaAldrich) in distilled water and was administered subcutaneously (s.c.) at the back of the neck to induce constipation. Mice were injected with either vehicle (1% Tween-80/water) or loperamide (0.3, 1, 3 mg/kg). INSL5-A13 (20 μg/kg) (SEQ ID NOs 9 and 10) and single-chain αF stapled analogue (200 μg/kg) (SEQ ID NO 16) were dissolved in distilled water and injected intraperitoneally (i.p.) 10 minutes after loperamide was administered (1 mg/kg, s.c.). At 20 minutes post peptide injection, mice were lightly anesthetized with 2% (v/v) isoflurane in O2, administered at 1 L/min for a maximum of 15 seconds following induction with 5% isoflurane in O2 at 1 L/min. […] The time taken from bead insertion to bead expulsion was recorded. […] The time was scored as 30 minutes. […]

[3] = target: T1, RXFP4 (Homo sapiens, UniProt Q8TDU9); test: Eu-R3/I5 competition binding assay in CHO-K1-RXFP4 cells; set-up: expressed in transfected cells
Target sequence in this assay (Q8TDU9 whole entry): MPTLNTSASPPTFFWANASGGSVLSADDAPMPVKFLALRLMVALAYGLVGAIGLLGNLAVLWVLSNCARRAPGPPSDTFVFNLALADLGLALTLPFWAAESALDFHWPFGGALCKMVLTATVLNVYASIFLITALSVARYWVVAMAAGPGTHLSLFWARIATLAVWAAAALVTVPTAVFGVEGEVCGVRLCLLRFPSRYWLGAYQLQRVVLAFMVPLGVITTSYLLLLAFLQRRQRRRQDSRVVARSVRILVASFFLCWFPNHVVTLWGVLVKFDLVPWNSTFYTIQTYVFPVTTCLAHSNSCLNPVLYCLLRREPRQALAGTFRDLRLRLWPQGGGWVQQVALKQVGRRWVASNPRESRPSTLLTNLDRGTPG

[4] = target: T1, RXFP4; test: Inhibition of forskolin-induced cAMP activity in CHO-K1-RXFP4 cells (pCRE β-galactosidase reporter); type: cell-based; set-up: expressed in transfected cells
Target sequence in this assay (Q8TDU9 whole entry): as above

[5] = target: T2, RXFP3 (Homo sapiens, UniProt Q9NSD7); test: Eu-H3B1-22R competition binding assay in CHO-K1-RXFP3 cells; conditions: 5 nM Eu-H3B1-22R, mean ± SEM (n), Table 2, read-out: Eu-H3B1-22R pKi (converted)
T2 construct: expressed in transfected cells
T2 sequence (Q9NSD7 1-469): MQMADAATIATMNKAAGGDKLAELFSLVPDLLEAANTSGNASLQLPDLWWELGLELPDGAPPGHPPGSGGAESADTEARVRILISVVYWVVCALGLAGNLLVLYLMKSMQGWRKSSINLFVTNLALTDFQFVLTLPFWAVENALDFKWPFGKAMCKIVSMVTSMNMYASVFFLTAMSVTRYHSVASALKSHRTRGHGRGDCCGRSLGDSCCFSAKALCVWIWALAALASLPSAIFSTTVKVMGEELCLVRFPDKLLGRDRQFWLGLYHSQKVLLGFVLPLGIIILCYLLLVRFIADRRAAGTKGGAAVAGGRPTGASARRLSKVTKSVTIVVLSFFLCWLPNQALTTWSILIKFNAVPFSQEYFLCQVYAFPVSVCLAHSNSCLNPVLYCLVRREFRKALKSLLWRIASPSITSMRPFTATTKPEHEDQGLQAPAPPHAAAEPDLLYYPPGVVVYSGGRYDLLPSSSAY
Description: An Eu-H3B1-22R competition binding assay was conducted in CHO-K1-RXFP3 cells.
Competition binding curves for each peptide were performed in triplicate and each experiment was performed independently at least three times. Fluorescent measurements were carried out at excitation of 340 nm and emission of 614 nm on a BMG POLARstar plate reader (BMG Labtech, Melbourne, Australia). Pooled data were presented as mean±S.E.M. of specific binding and are fitted using a one-site binding curve in GraphPad Prism version 8 (GraphPad Inc., San Diego, USA). Statistical analyses were conducted using one-way analysis of variance with uncorrected Fisher's least significant difference (LSD) post-hoc analysis in GraphPad Prism version 9.
(§1) Competition binding and cAMP activity assay were conducted by a procedure analogous to that described above for Example 3. The results are shown in FIG. 24 (RXFP3) and FIG. 25 (RXFP4).

[6] = target: T2, RXFP3; test: Inhibition of forskolin-induced cAMP activity in CHO-K1-RXFP3 cells (pCRE β-galactosidase reporter); type: cell-based; conditions: 5 μM forskolin, 6 hours, Table 2, read-out: cAMP pEC50 (converted)
Description: Since RXFP3 is coupled to Gi/o proteins, peptides were tested for their ability to activate RXFP3 as measured via their ability to inhibit forskolin-induced cAMP activity in CHO-K1-RXFP3 or CHO-K1-RXFP4 cells transfected with a pCRE (cAMP Response Element) β-galactosidase reporter plasmid (as described in Belgi, A et al., Structure and function relationship of murine insulin-like peptide 5 (INSL5): free C-terminus is essential for RXFP4 receptor binding and activation. Biochemistry 2011, 50 (39), 8352-61; and Haugaard-Kedstrom, L. M et al., Synthesis and pharmacological characterization of a europium-labelled single-chain antagonist for binding studies of the relaxin-3 receptor RXFP3. Amino Acids 2015, 47 (6), 1267-71). For agonist assays, cells were stimulated with forskolin (5 μM for RXFP3, 1 μM for RXFP4)±increasing concentrations of each peptide for 6 hours. Data were expressed as the % forskolin activity, whereby 100% was defined as forskolin alone and 0% as maximum agonist stimulation (1 μM Analogue 2 for RXFP3 and 1 μM Analogue 13 for RXFP4). Data were analysed and plotted using GraphPad Prism 9 and are expressed as the mean±SEM of the pooled data. Statistical analysis was conducted using one-way ANOVA with Uncorrected Fisher's LSD post-hoc analysis using GraphPad Prism 9.
as §1

[7] = target: T3, RXFP3 (Homo sapiens, UniProt Q9NSD7); test: NanoBRET β-arrestin2 recruitment assay, RXFP3-NLuc / Venus-β-arrestin2 in HEK293T cells; type: cell-based
T3 construct: expressed in transfected cells; host or cells: HEK293T (transient, Lipofectamine 2000, pcDNA3.1/Zeo(+))
Description: (§2) The inventors assessed if H3B10-27(13/17αF) retained the ability to recruit β-arrestin2 and therefore display full agonist activity at RXFP3 and RXFP4, in comparison to Peptide 5.
The RXFP3 β-arrestin2 recruitment assay was carried out by PCR cloning NLuc onto the C-terminus of human RXFP3 in an identical manner to the RXFP3-rLuc8 construct to create pcDNA3.1-RXFP3-NLuc. The construct was sequenced on both strands to confirm that the NLuc was in frame with RXFP3 and there were no additional PCR mutations. pcDNA3.1-RXFP3-NL was tested in parallel with pcDNA3.1-RXFP3 in cAMP activity assays to determine if the C-terminal nanoluciferase fusion affected agonist activity.
For NanoBRET β-arrestin2 recruitment assays, HEK293T cells were plated onto a six-well plate, and were transfected the following day with β-arrestin2-Venus and either RXFP3-Nluc or RXFP4-Nluc, in the pcDNA3.1/Zeo(+) vector, using Lipofectamine 2000. The next day, cells were washed with DPBS and resuspended in complete media containing 25 mM HEPES but no phenol red, and were seeded into a 96-well CulturPlate (PerkinElmer). […] Emissions were detected simultaneously using a PHERAstar FSX plate reader (BMG Labtech) with 450/80 nm and 535/30 nm filters. Ligand-induced BRET ratio was calculated by subtracting the ratio of 535/30 nm emissions to 450/80 nm emissions for vehicle from the same ratio for ligand-treated wells. […]
T3 sequence (P32121 whole entry partner, one chain of several): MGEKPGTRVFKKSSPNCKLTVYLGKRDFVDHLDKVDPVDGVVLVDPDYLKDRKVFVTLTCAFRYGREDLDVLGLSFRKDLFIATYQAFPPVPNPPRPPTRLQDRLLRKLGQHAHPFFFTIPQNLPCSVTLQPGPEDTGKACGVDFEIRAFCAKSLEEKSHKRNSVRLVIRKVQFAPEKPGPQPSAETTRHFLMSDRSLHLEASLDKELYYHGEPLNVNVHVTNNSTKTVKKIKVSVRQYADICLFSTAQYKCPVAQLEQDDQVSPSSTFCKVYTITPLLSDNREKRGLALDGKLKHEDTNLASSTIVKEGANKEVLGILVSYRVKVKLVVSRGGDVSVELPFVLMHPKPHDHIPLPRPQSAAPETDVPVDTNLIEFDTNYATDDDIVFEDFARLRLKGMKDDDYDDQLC

[8] = In vitro serum stability in human serum at 37° C.; conditions: human serum
Description: Human serum (400 μl) was mixed with 200 μg peptide dissolved in 100 μl of water at 37° C. Eighty (80) μl of sample was removed at various time points (0 min, 30 min, 60 min, 120 min, 240 min, and 480 min), and 160 μl of acetonitrile added to precipitate plasma proteins. The solution was then centrifuged at 12000 rpm for 15 min at 4° C. 200 μl of supernatant was taken and mixed with 240 μl of milli-Q water and each sample analysed by RP-HPLC (2×80 μL injection) by measuring the area under the peak at appropriate retention times compared to the peak area of the peptide at time zero (100%). Data analysis (n=3, duplicate) was performed using a non-linear fit one-phase decay model in GraphPad Prism 9.

[9] = target: T1, RXFP4; test: NanoBRET β-arrestin2 recruitment assay, RXFP4-NLuc / Venus-β-arrestin2 in HEK293T cells; type: cell-based; set-up: expressed in transfected cells; host or cells: HEK293T (transient, Lipofectamine 2000, pcDNA3.1/Zeo(+)); conditions: AUC of the entire time course; text of b227; read-out: pEC50, RXFP4 β-arrestin2 recruitment (converted)
Description: as §2
Target sequence in this assay (Q8TDU9 whole entry): as the sequence (Q8TDU9 whole entry) above
Target sequence in this assay (P32121 whole entry partner): as the sequence (P32121 whole entry partner, one chain of several) above
For NanoBRET β-arrestin2 recruitment assays, HEK293T cells were plated onto a six-well plate, and were transfected the following day with β-arrestin2-Venus and either RXFP3-Nluc or RXFP4-Nluc, in the pcDNA3.1/Zeo(+) vector, using Lipofectamine 2000. The next day, cells were washed with DPBS and resuspended in complete media containing 25 mM HEPES but no phenol red, and were seeded into a 96-well CulturPlate (PerkinElmer). The next day, prior to the assay, cells were pre-incubated in phenol red free media with NLuc substrate, 5 μM coelenterazine 400a for RXFP3-nLuc and 5 μM coelenterazine h for RXFP4-NLuc (both from Nanolight, Pinetop, AZ, USA) to establish a baseline, before addition of ligand or vehicle. Emissions were detected simultaneously using a PHERAstar FSX plate reader (BMG Labtech) with 450/80 nm and 535/30 nm filters. Ligand-induced BRET ratio was calculated by subtracting the ratio of 535/30 nm emissions to 450/80 nm emissions for vehicle from the same ratio for ligand-treated wells. […]

Molecule: R3(B1-22): R3(B1-22) RXFP3 antagonist, co-injected in pain model; possibly the same as H3B1-22R (RAAPYGVRLSGREFIRAVIFTSR)
effect of co-injection on the antinociceptive effects of the agonists [1]: fully abolished

Eu-R3/I5 pKi ([3]; RXFP4, Table 5): 7.46 ± 0.06 (7)
cAMP pEC50 ([4]; RXFP4, Table 5): 8.10 ± 0.10 (4)
Molecule: CC[C@H](C)[C@@H]1NC(=O)[C@H](Cc2ccc(O)cc2)NC(=O)[C@H]([C@@H](C)CC)NC(=O)[C@H](C(C)C)NC(=O)[C@H]([C@@H](C)O)NC(=O)[C@H](CCCNC(=N)N)NC(=O)[C@H]([C@@H](C)CC)NC(=O)[C@H](Cc2ccc(O)cc2)NC(=O)[C@H](CCC(=O)O)NC(=O)[C@H](CC(C)C)NC(=O)CNC(=O)[C@@H](NC(=O)[C@H](CC(C)C)NC(=O)[C@H](CCCNC(=N)N)NC(=O)[C@@H](NC(=O)[C@H](CO)NC(=O)[C@H](CCC(=O)O)NC(=O)[C@@H](N)CCCCN)C(C)C)CSSC[C@H](N)C(=O)N[C@@H]([C@@H](C)O)C(=O)N[C@@H](CC(=O)O)C(=O)NCC(=O)N[C@@H](C)C(=O)N[C@@H](CO)C(=O)N[C@@H](CCSC)C(=O)N[C@@H](CCCCN)C(=O)N[C@@H](CC(=O)O)C(=O)N[C@@H](CC(C)C)C(=O)N[C@@H](CO)C(=O)N[C@@H](C)C(=O)N[C@@H](CC(C)C)C(=O)N[C@H](C(=O)O)CSSC[C@@H](C(=O)N[C@@H](C)C(=O)N[C@@H](CO)C(=O)N[C@@H](CO)C(=O)N[C@@H](CCCNC(=N)N)C(=O)N[C@@H](Cc2c[nH]c3ccccc23)C(=O)O)NC1=O [INSL5-A13] (I: H-KESVRLCGLEYIRTVIYICASSRW-OH / II: H-CTDGASMKDLSALC-OH; disulfide I:7-II:1, I:19-II:14; N-terminus and C-terminus assumed)
colorectal propulsion (bead expulsion) [2]: effective in accelerating colorectal propulsion

Ki [5]: 148 nM
EC50 [6]: 6.92 nM
EC50 ([7]; AUC of NanoBRET time course, Table 4, read-out: RXFP3 pEC50 (β-arrestin2 recruitment) (converted)): 64.6 nM
EC50 ([7]; AUC of the entire time course, text of b227, read-out: pEC50, RXFP3 β-arrestin2 recruitment (converted)): 89.1 nM
Ki ([3]; RXFP4, CHO-K1-RXFP4 cells, 5 nM Eu-R3/I5, Table 3, read-out: Eu-R3/I5 pKi (converted)): 155 nM
EC50 ([4]; RXFP4, CHO-K1-RXFP4 cells, 1 μM forskolin, 6 hours, Table 3, read-out: cAMP pEC50 (converted)): 55 nM
half-life at 400 µg/mL [8]: ~5 h
EC50 [9]: 2690 nM
Molecule: CC[C@H](C)[C@H](NC(=O)[C@H](Cc1ccccc1)NC(=O)[C@](C)(Cc1ccccc1)NC(=O)[C@H](CCCNC(=N)N)NC(=O)CNC(=O)[C@@H](N)CO)C(=O)N[C@@H](CCCNC(=N)N)C(=O)N[C@@](C)(Cc1ccccc1)C(=O)N[C@H](C(=O)N[C@H](C(=O)N[C@@H](Cc1ccccc1)C(=O)N[C@H](C(=O)N[C@@H](CO)C(=O)NCC(=O)NCC(=O)N[C@@H](CO)C(=O)N[C@@H](CCCNC(=N)N)C(=O)N[C@@H](Cc1c[nH]c2ccccc12)C(=O)O)[C@@H](C)O)[C@@H](C)CC)C(C)C [H3B10-27(13/17αF)] (H-SGR[αMeF]FIR[αMeF]VIFTSGGSRW-OH)
